In US7582645B2, “Pyrimidine derivatives for treatment of hyperproliferative disorders” (Bayer Pharmaceuticals Corporation, priority 2003, dated 2009):
Structures can show the parent of a compound that is named as a salt.

Tested on: HCT116 cells
Experiment: HCT116 cytotoxic activity assay (Alamar Blue, 72 h)
Type: cell-based
Conditions: Homo sapiens, HCT-116, 72 h compound exposure
Experimental: Representative compounds of this invention were tested for cytotoxicity using the above-described assay procedure with the following results: […]

[1] = greater than 500 nM but less than or equal to 2 μM

Row | SMILES | IC50 (less than or equal to 500 nM) [µM] | other results
1 | CCc1cc(Oc2ccc(Nc3cc(-c4ccccc4)nc(N)n3)cc2)ccn1 [Example 1, N^4-{4-[(2-ethylpyridin-4-yl)oxy]phenyl}-6-phenyl-pyrimidine-2,4-diamine] | ≤ 0.5 | –
2 | Cc1cc(Oc2ccc(Nc3cc(-c4ccccc4)nc(N)n3)cc2)ccn1 [Example 2, N^4-{4-[(2-methylpyridin-4-yl)oxy]phenyl}-6-phenylpyrimidine-2,4-diamine] | ≤ 0.5 | –
3 | NC(=O)c1cc(Oc2cccc(Nc3cc(-c4ccccc4)nc(N)n3)c2)ccn1 [Example 3, 4-{3-[(2-amino-6-phenylpyrimidin-4-yl)amino]phenoxy}pyridine-2-carboxamide] | ≤ 0.5 | –
4 | CNC(=O)c1cc(Oc2cccc(Nc3cc(-c4ccccc4)nc(N)n3)c2)ccn1 [Example 4, 4-{3-[(2-amino-6-phenylpyrimidin-4-yl)amino]phenoxy}-N-methylpyridine-2-carboxamide] | ≤ 0.5 | –
5 | Nc1nc(Nc2ccc(Oc3c(F)cncc3F)cc2)cc(-c2ccccc2)n1 [Example 5, N^4-{4-[(3,5-difluoropyridin-4-yl)oxy]phenyl}-6-phenylpyrimidine-2,4-diamine] | – | IC50 [1]: 0.5 to 2 µM
6 | N#Cc1cc(Oc2ccc(Nc3cc(-c4ccccc4)nc(N)n3)c(F)c2)ccn1 [Example 6, 4-{4-[(2-amino-6-phenylpyrimidin-4-yl)amino]-3-fluorophenoxy} pyridine-2-carbonitrile hydrochloride] | ≤ 0.5 | –
7 | Cc1cc(Oc2ccc(Nc3cc(-c4ccccc4)nc(N)n3)cc2F)ccn1 [Example 7, N^4-{3-fluoro-4-[(2-methylpyridin-4-yl)oxy]phenyl}-6-phenylpyrimidine-2,4-diamine] | ≤ 0.5 | –
8 | N#Cc1cc(Oc2ccc(Nc3cc(-c4ccccc4)nc(N)n3)cc2)ccn1 [Example 8, 4-{4-[(2-amino-6-phenylpyrimidin-4-yl)amino]phenoxy}pyridine-2-carbonitrile] | ≤ 0.5 | –
9 | CNC(=O)c1cc(Oc2cccc(Nc3cc(-c4ccoc4)nc(N)n3)c2)ccn1 [Example 9, 4-(3-{[2-amino-6-(3-furyl)pyrimidin-4-yl]amino}phenoxy)-N-methylpyridine-2-carboxamide] | ≤ 0.5 | –
10 | CNC(=O)c1cc(Oc2ccc(Nc3cc(-c4ccoc4)nc(N)n3)cc2)ccn1 [Example 10, 4-(4-{[2-amino-6-(3-furyl)pyrimidin-4-yl]amino}-phenoxy)-N-methylpyridine-2-carboxamide] | – | IC50 [1]: 0.5 to 2 µM
11 | Nc1nc(Nc2ccc(Oc3ccc([N+](=O)[O-])cc3)cc2)cc(-c2ccccc2)n1 [Example 11, N^4-[4-(4-nitrophenoxy)phenyl]-6-phenylpyrimidine-2,4 diamine] | ≤ 0.5 | –
12 | Nc1nc(Nc2ccc(Oc3ccc(Cl)cc3)cc2)cc(-c2ccccc2)n1 [Example 12, N^4-[4-(4-chlorophenoxy)phenyl]-6-phenylpyrimidine-2,4-diamine] | – | IC50 [1]: 0.5 to 2 µM
13 | COc1ccc(Oc2ccc(Nc3cc(-c4ccccc4)nc(N)n3)cc2)cc1 [Example 13, N^4-[4-(4-methoxyphenoxy)phenyl]-6-phenylpyrimidine-2,4-diamine] | ≤ 0.5 | –
14 | COC(=O)c1cc(Oc2ccc(Nc3cc(-c4ccccc4)nc(N)n3)cc2)ccn1 [Example 19, methyl 4-{4-[(2-amino-6-phenylpyrimidin-4-yl)amino]phenoxy}pyridine-2-carboxylate] | ≤ 0.5 | –
15 | Nc1nc(Nc2ccc(Oc3ccnc(C(=O)N4CCOCC4)c3)cc2)cc(-c2ccccc2)n1 [Example 21, N^4-(4-{[2-(morpholin-4-ylcarbonyl)pyridin-4-yl]oxy}phenyl)-6-phenylpyrimidine-2,4-diamine] | ≤ 0.5 | –
16 | COCCNC(=O)c1cc(Oc2ccc(Nc3cc(-c4ccccc4)nc(N)n3)cc2)ccn1 [Example 23, 4-{4-[(2-amino-6-phenylpyrimidin-4-yl)amino]phenoxy}-N-(2-methoxyethyl)pyridine-2-carboxamide] | – | IC50 [1]: 0.5 to 2 µM
17 | CN1CCN(C(=O)c2cc(Oc3ccc(Nc4cc(-c5ccccc5)nc(N)n4)cc3)ccn2)CC1 [Example 26, N4*-[4-({2-[(4-methylpiperazin-1-yl)carbonyl]pyridin-4-yl}oxy)phenyl]-6-phenylpyrimidine-2,4-diamine trifluoroacetate] | – | IC50 [1]: 0.5 to 2 µM
18 | CCNc1nc(Nc2ccc(Oc3ccnc(C(F)(F)F)c3)cc2)cc(-c2cccc(OC)c2)n1 [Example 30, N^2-ethyl-6-(3-methoxy-phenyl)-N^4-[4-(2-trifluoromethyl-pyridin-4-yloxy)-phenyl]-pyrimidine-2,4-diamine] | – | IC50 [1]: 0.5 to 2 µM
19 | Nc1nc(Nc2ccc(Oc3ccnc(OCCN4CCOCC4)c3)cc2)cc(-c2ccccc2)n1 [Example 32, N^4-{4-[2-(2-morpholin-4-yl-ethoxy)-pyridin-4-yloxy]-phenyl}-6-phenyl-pyrimidine-2,4-diamine] | – | IC50 [1]: 0.5 to 2 µM
20 | Nc1nc(Nc2ccc(Cc3ccnc(C(F)(F)F)c3)cc2)cc(-c2ccccc2)n1 [Example 33, 6-phenyl-N^4-[4-(2-trifluoromethyl-pyridin-4-ylmethyl)-phenyl]-pyrimidin-2,4-diamine] | ≤ 0.5 | –

Row | SMILES | IC50 (less than or equal to 500 nM) [µM] | other results
21 | Nc1nc(Nc2ccc(Cc3ccnc(Cl)c3)cc2)cc(-c2ccccc2)n1 [Example 34, N4*-{4-[(2-chloropyridin-4-yl)methyl]phenyl}-6-phenylpyrimidine-2,4-diamine] | ≤ 0.5 | –
22 | N#Cc1cc(Cc2ccc(Nc3cc(-c4ccccc4)nc(N)n3)cc2)ccn1 [Example 35, 4-[4-(2-amino-6-phenyl-pyrimidin-4-ylamino)-benzyl]-pyridine-2-carbonitrile] | ≤ 0.5 | –
23 | Nc1nc(Nc2ccc(Oc3ccnc(C(F)(F)F)c3)cc2)cc(-c2ccccc2)n1 [Example 37, 6-phenyl-N^4-(4-{[2-(trifluoromethyl)pyridin-4-yl]oxy}phenyl)pyrimidine-2,4-diamine] | ≤ 0.5 | –
24 | Nc1nc(Nc2ccc(Oc3cc[n+]([O-])c(C(F)(F)F)c3)cc2)cc(-c2ccccc2)n1 [Example 38, N^4-(4-{[1-oxido-2-(trifluoromethyl)pyridin-4-yl]oxy}phenyl)-6-phenylpyrimidine-2,4-diamine] | ≤ 0.5 | –
25 | CS(=O)(=O)NCc1cc(Oc2ccc(Nc3cc(-c4ccccc4)nc(N)n3)cc2)ccn1 [Example 40, N-[(4-{4-[(2-amino-6-phenylpyrimidin-4-yl)amino]-phenoxy}pyridin-2-yl)methyl]methanesulfonamide] | ≤ 0.5 | –
26 | Nc1nc(Nc2ccc(Oc3ccnc(CNC(=O)c4ccc(F)cc4)c3)cc2)cc(-c2ccccc2)n1 [Example 41, N-[(4-{4-[(2-amino-6-phenylpyrimidin-4-yl)amino]phenoxy}pyridin-2-yl)methyl]-4-fluorobenzamide] | – | IC50 [1]: 0.5 to 2 µM
27 | CCN(CC)C(=O)NCc1cc(Oc2ccc(Nc3cc(-c4ccccc4)nc(N)n3)cc2)ccn1 [Example 42, N′-[(4-{4-[(2-amino-6-phenylpyrimidin-4-yl)amino]phenoxy}pyridin-2-yl)methyl]-N,N-diethylurea] | – | IC50 [1]: 0.5 to 2 µM
28 | COC[C@@H]1CCCN1c1ccnc(Oc2ccc(Nc3cc(-c4ccccc4)nc(N)n3)cc2)c1 [Example 43] | – | IC50 (greater than 2 μM): > 2 µM
29 | CC(C)NCc1cc(Oc2ccc(Nc3cc(-c4ccccc4)nc(N)n3)cc2)ccn1 [Example 44, N^4-[4-({2-[(isopropylamino)methyl]pyridin-4-yl}oxy)phenyl]-6-phenylpyrimidine-2,4-diamine] | – | IC50 (greater than 2 μM): > 2 µM
30 | Nc1nc(Nc2ccc(Oc3ccnc(C(=O)NCCO)c3)cc2)cc(-c2ccccc2)n1 [Example 45, 4-[4-(2-Amino-6-phenylpyrimidin-4-ylamino)phenoxy]pyridine-2-carboxylic acid (2-hydroxyethyl)amide] | ≤ 0.5 | –
31 | Nc1nc(Nc2ccc(Oc3ccnc(-c4nnn[nH]4)c3)cc2)cc(-c2ccccc2)n1 [Example 46, 6-phenyl-N^4-{4-[2-(1H-tetrazol-5-yl)pyridin-4-yloxy]phenyl}pyrimidine-2,4-diamine] | ≤ 0.5 | –
32 | Nc1nc(Nc2ccc(Oc3ccnc(C4=NCCN4)c3)cc2)cc(-c2ccccc2)n1 [Example 47, N^4-{4-[2-(4,5-Dihydro-1H-imidazol-2-yl)pyridin-4-yloxy]phenyl}-6-phenylpyrimidine-2,4-diamine] | – | IC50 [1]: 0.5 to 2 µM
33 | Nc1nc(Nc2ccc(Oc3ccnc(Cl)c3)cc2)cc(-c2ccccc2)n1 [Example 48, N^4-[4-(2-Chloro-pyridin-4-yloxy)-phenyl]-6-phenyl-pyrimidine-2,4 diamine] | ≤ 0.5 | –
34 | COC[C@@H]1CCCN1c1cc(Oc2ccc(Nc3cc(-c4ccccc4)nc(N)n3)cc2)ccn1 [Example 49, (S)—N^4-{4-[2-(2-Methoxymethylpyrrolidin-1-yl)pyridin-4-yloxy]phenyl}-6-phenylpyrimidine-2,4-diamine] | ≤ 0.5 | –
35 | Nc1nc(Nc2ccc(Oc3ccnc(C(F)(F)F)c3)cc2)cc(-c2ccc(NC(=O)[C@@H](N)CO)cc2)n1 [Example 50, 2-amino-N-(4-{2-amino-6-[4-(2-trifluoromethylpyridin-4-yloxy)phenylamino]pyrimidin-4-yl}phenyl)-3-hydroxypropionamide] | ≤ 0.5 | –
36 | Nc1nc(Nc2ccc(Oc3ccnc(C(F)(F)F)c3)cc2)cc(-c2ccc(O)cc2)n1 [Example 51, 4-{2-amino-6-[(4-{[2-(trifluoromethyl)pyridin-4-yl]oxy}phenyl)amino]pyrimidin-4-yl}phenol] | ≤ 0.5 | –
37 | Nc1nc(Nc2ccc(Oc3ccnc(C(F)(F)F)c3)cc2)cc(-c2ccc(OS(N)(=O)=O)cc2)n1 [Example 52, sulfamic acid, 4-{2-amino-6-[4-(2-trifluoromethylpyridin-4-yloxy)phenylamino]pyrimidin-4-yl}phenyl ester] | ≤ 0.5 | –
38 | Nc1cc(Oc2ccc(Nc3cc(-c4ccccc4)nc(N)n3)cc2)ccn1 [Example 53, N^4-[4-(2-aminopyridin-4-yloxy)phenyl]-6-phenylpyrimidine-2,4-diamine] | ≤ 0.5 | –
39 | Nc1nc(Nc2ccc(Oc3ccnc(/C=C/CCO)c3)cc2)cc(-c2ccccc2)n1 [Example 58, (3E)-4-(4-{4-[(2-amino-6-phenylpyrimidin-4-yl)amino]phenoxy}pyridin-2-yl)but-3-en-1-ol] | ≤ 0.5 | –
40 | CCOC(=O)c1cc(Oc2cncc(Cl)c2)ccc1Nc1cc(-c2ccccc2)nc(N)n1 [Example 60, ethyl 2-[(2-amino-6-phenylpyrimidin-4-yl)amino]-5-[(5-chloropyridin-3-yl)oxy]benzoate] | – | IC50 [1]: 0.5 to 2 µM
